Results on 9 molecules are retold here after US10280156B2, “Heteroaromatic chalcone derivatives and their medical use” (Medizinische Universität Wien, priority 2014, dated 2019).

A value given as a limit tells only on which side of the number the result lay.

Broadly, the IC50 is the concentration needed to halve the response being measured. As a reminder, the melting point is the temperature, or range, at which the solid turns liquid.

One data set concerns OCI-Ly7. Description: Viability test on OCI-Ly7 cells, 48 h. The settings on record: 48 h incubation, nd = no significant cytotoxic activity up to 100 μM. The format is cell-based, human. The method, then:
(§1) JURKAT and CCRF-CEM (T-cell acute lymphoblastic leukemia), HL60 and K562 representing acute and chronic myeloid leukemia, respectively, the chronic lymphocytic leukemia cell line MEC-1, and the diffuse large B-cell lymphoma cell line U-2940 were cultured in Gibco RPMI 1640+GlutaMAX (Life Technologies, Carlsbad, Calif., USA) supplemented with 10% fetal bovine serum gold (FBS gold; PAA Laboratories, Pasching, Austria) and 1% PenStrep (100 U/ml penicillin and 100 μg/ml streptomycin; PAA Laboratories), and maintained at 37° C. in humidified atmosphere with 5% CO2. The diffuse large B-cell lymphoma cell line OCI-LY7 was cultured in Gibco IMDM+GlutaMAX and 25 mM HEPES (Life Technologies) containing 20% FBS gold and 1% PenStrep.
(§2) All experiments with hematological cell lines were done using phenol red-free RPMI 1640+L-glutamine (PAA Laboratories) supplemented with 1% PenStrep and 10% FBS gold, except experiments with OCI-Ly7 which were carried out in Gibco IMEM+GlutaMAX and 25 mM HEPES containing 20% FBS gold and 1% PenStrep. Cells were incubated in triplicates with increasing concentrations of the compounds for 48 h, changes in viability were determined using the cell proliferation and cytotoxicity assays EZ4U (Biomedica Group, Austria) and CellTiter-Blue Cell Viability Assay (Promega, Madison, Wis., USA) following instructions of the manufacturers. IC50 values were calculated from two independent experiments using GraphPad Prism 5 software.
(§3) Initially, compounds were biologically tested in six concentration steps (0.1 μM; 1 μM; 5 μM; 10 μM; 50 μM; and 100 μM) using the CellTiter-Blue Cell Viability Assay (Promega, Madison, Wis., USA) and an incubation time of 48 hours. […] IC50 values were calculated from at least two independent experiments with 3 replicates each. In order to evaluate the biologic activity of the new compounds, cytotoxicity was compared to that of fludarabine, an already approved drug for the treatment of various B-cell malignancies. […] Differences in IC50 values for the different cell types can be explained by the biological and genetic particularities of each subtype of B-cell Non-Hodgkin lymphoma (Stacchini A et al. Leukemia Res 1999, 23, 127-136; Sambade C et al. Int J Cancer 2006, 118, 555-563; Chang H et al. Leukemia lymphoma 1995, 19, 165-171; Tweeddale M E et al. Blood 1987, 69, 1307-1314; Tweeddale M et al. Blood 1989, 74, 572-578).

Another data set concerns M2-10B4. Kind of data set: Viability test on mouse fibroblast cell line M2-10B4, 48 h. It counts as cell-based. The settings on record: for IC50: 48 h incubation, mouse fibroblast cell line. The method, then: as §2
Structurally seen, the small molecule compound 1 represents a typical chalcone scaffold. It is characterized by an ortho-ethoxy-substituted phenyl part as ring A and a 2-naphthyl moiety symbolizing ring B. The focus of the present study was to guide the systematic identification of a growth inhibitor with specificity to neoplastic cells, as cytotoxicity towards healthy cells is mostly associated with adverse effects, which can be related to morbidity and mortality of the patient (Milligan D W et al. Brit J Haematol 2006, 135, 450-474). To discriminate in vitro between structural elements necessary for potent cytotoxicity towards tumor cells which, at the same time, clearly show less activity on normal cells, the compounds were additionally tested on the murine bone marrow fibroblast cell line M2-10B4. This cell line is regularly used as feeder layer when cultured with patient cells providing additional support and survival signals in particular in drug screens (Kurtova A V et al. Blood 2009, 114, 4441-4450).
as §3

Another data set relates to MEC1. Kind of data set: Viability test (CellTiter-Blue/EZ4U) on MEC1 cells, 48 h. The conditions noted are these: 48 h incubation, nd = no significant cytotoxic activity up to 100 μM. The format is cell-based, human. How it is done: as §1, §2, §3
In the next data set the test system is U-2940. Kind of data set: Viability test on U-2940 cells, 48 h. The format is cell-based, human. The conditions noted are these: 48 h incubation, nd = no significant cytotoxic activity up to 100 μM. How it is done:
as §1, §2, §3

On to `CCOc1ccccc1C(=O)/C=C/c1ccc2ccccc2c1` [Compound 1, 3-(2-Napthyl)-1-(2-ethoxyphenyl)-2-propen-1-one], for which the melting point fell in the range of 96 to 97 °C. This molecule also registered a 50% inhibitory concentration (IC50) in the data set on OCI-Ly7 (Homo sapiens, OCI-Ly7, 48 h) of 0.06 µM. The same molecule gave a half-inhibitory concentration (IC50) in the data set on M2-10B4 (Mus musculus, M210B4, 48 h) of 7.8 µM. Also, the IC50 with MEC1 (Homo sapiens, MEC1, 48 h) is 0.06 µM. In addition, half-maximal inhibition in the data set on U-2940 (IC50) was put at 4.43 µM. Also, in the data set with U-2940 (Homo sapiens, U-2940, 48 h), the concentration for half-maximal inhibition (IC50) is 2.43 µM.

On to `CC(C)Oc1ccccc1C(=O)/C=C/c1ccc2ccccc2c1` [Compound 5], for which the melting point is 82 to 85 °C. Moreover, the IC50 with OCI-Ly7 (Homo sapiens, OCI-Ly7, 48 h) came out at 0.15 µM. In the data set with M2-10B4 (Mus musculus, M210B4, 48 h), this molecule had a 50% inhibitory concentration (IC50) of more than 100 µM. Besides, inhibition in the data set on MEC1 (Homo sapiens, MEC1, 48 h) was half-maximal at 1.17 µM (IC50). Besides, the IC50 in the data set on U-2940 (Homo sapiens, U-2940, 48 h) turned out to be 11.1 µM.

On to `C=Cc1cccc(/C=C/C(=O)c2ccccc2OCC)c1` [Compound 8, 3-(3-Ethenylphenyl)-1-(2-ethoxyphenyl)-2-propen-1-one], for which the IC50 is 0.5 µM in the data set on OCI-Ly7 (Homo sapiens, OCI-Ly7, 48 h); more than 100 µM with M2-10B4 (Mus musculus, M210B4, 48 h); 0.2 µM in the data set with MEC1 (Homo sapiens, MEC1, 48 h); 2.5 µM with U-2940 (Homo sapiens, U-2940, 48 h). The “cytotoxic potential on M2-10B4 (in words)” value in the data set with M2-10B4 (mouse fibroblasts) is given as “did not show any activity”.

Turning to `CCOc1ccccc1C(=O)/C=C/c1ccc2c(c1)OCO2` [Compound 9, 3-(1,3-Benzodioxol-5-yl)-1-(2-ethoxyphenyl)-2-propen-1-one], the melting point fell in the range of 65 to 70 °C. In the data set on OCI-Ly7 (Homo sapiens, OCI-Ly7, 48 h), this molecule showed a half-inhibitory concentration (IC50) of 0.13 µM. In the data set on M2-10B4 (Mus musculus, M210B4, 48 h), this molecule registered an IC50 of more than 100 µM. The molecule further yielded a half-maximal inhibitory concentration (IC50) in the data set with MEC1 (Homo sapiens, MEC1, 48 h) of 1.1 µM. Besides, in the data set on U-2940 (Homo sapiens, U-2940, 48 h), the half-inhibitory concentration (IC50) stood at 9.49 µM.

`CCOc1ccccc1C(=O)/C=C/c1cccc2ccccc12` [Compound 10, 1-(2-Ethoxyphenyl)-3-(1-naphthyl)-2-propen-1-one]: the melting point lay within 109 to 110 °C. In the data set with OCI-Ly7 (Homo sapiens, OCI-Ly7, 48 h), this molecule showed a 50% inhibitory concentration (IC50) of 1.48 µM. The molecule further showed a half-inhibitory concentration (IC50) in the data set on M2-10B4 of 17.1 µM. For the same molecule, half-maximal inhibition in the data set with M2-10B4 (Mus musculus, M210B4, 48 h) (IC50) required 14.1 µM. The molecule further showed a half-maximal inhibitory concentration (IC50) in the data set on MEC1 (Homo sapiens, MEC1, 48 h) of 1.9 µM. In addition, the IC50 in the data set on U-2940 (Homo sapiens, U-2940, 48 h) is 7.37 µM.

Take `CCOc1ccccc1C(=O)/C=C/c1c2ccccc2cc2ccccc12` [Compound 11, 3-(9-Anthranyl)-1-(2-ethoxyphenyl)-2-propen-1-one]: the concentration for half-maximal inhibition (IC50) was more than 100 µM in the data set with OCI-Ly7; more than 50 µM with OCI-Ly7 (Homo sapiens, OCI-Ly7, 48 h); more than 50 µM in the data set with M2-10B4 (Mus musculus, M210B4, 48 h); more than 100 µM with MEC1; more than 50 µM in the data set on MEC1 (Homo sapiens, MEC1, 48 h); more than 100 µM in the data set with U-2940. The molecule further returned an IC50 in the data set with U-2940 (Homo sapiens, U-2940, 48 h) of more than 50 µM.

As for `CCOc1ccccc1C(=O)/C=C/c1cc2ccccc2c2ccccc12` [Compound 12, 1-(2-Ethoxyphenyl)-3-(9-phenanthrenyl)-2-propen-1-one], the melting point was in the range of 117 to 120 °C. In the data set with M2-10B4 (Mus musculus, M210B4, 48 h), this molecule yielded an IC50 of more than 100 µM. The IC50 in the data set on MEC1 (Homo sapiens, MEC1, 48 h) came to 1.63 µM. In addition, the midpoint of inhibition with U-2940 (Homo sapiens, U-2940, 48 h), the IC50, lay at 39.9 µM.

For `CCOc1ccccc1C(=O)/C=C/c1ccc2sccc2c1` [Compound 13, 3-(5-Benzo[b]thienyl)-1-(2-ethoxyphenyl)-2-propen-1-one], the melting point was in the range of 104 to 106 °C. For the same molecule, half-maximal inhibition in the data set on OCI-Ly7 (Homo sapiens, OCI-Ly7, 48 h) (IC50) was put at 0.34 µM. The molecule also yielded an IC50 in the data set with M2-10B4 (Mus musculus, M210B4, 48 h) of 21.1 µM. In addition, the 50% inhibitory concentration (IC50) in the data set with MEC1 (Homo sapiens, MEC1, 48 h) is 0.34 µM. In the data set on U-2940 (Homo sapiens, U-2940, 48 h), this molecule had a concentration for half-maximal inhibition (IC50) of 9.05 µM.

Take `CCOc1ccccc1C(=O)/C=C/c1csc2ccccc12` [Compound 14, 3-(1-Benzothien-3-yl)-1-(2-ethoxyphenyl)-2-propen-1-one]: the IC50 with OCI-Ly7 (Homo sapiens, OCI-Ly7, 48 h) was 0.1 µM; in the data set with M2-10B4 (Mus musculus, M210B4, 48 h), 8.2 µM; in the data set with MEC1 (Homo sapiens, MEC1, 48 h), 0.17 µM; in the data set on U-2940 (Homo sapiens, U-2940, 48 h), 0.86 µM.
